From ChEMBL document CHEMBL3885881, “DrugMatrix”

Organism: Rattus norvegicus
Assay: DrugMatrix - Regimen: Daily Repeat
Assay type: toxicity, organism-based, Sprague-Dawley
Set-up: regimen Daily Repeat, gender Male, age 6-8 weeks
Settings: in vivo, sc, route subcutaneous, […]; for ABSOLUTE BASOPHIL / ABSOLUTE EOSINOPHIL / ABSOLUTE LYMPHOCYTE / ABSOLUTE MONOCYTE / ABSOLUTE SEGMENTED NEUTROPHIL / BASOPHIL / EOSINOPHIL / ERYTHROCYTE COUNT / HEMATOCRIT / HEMOGLOBIN / LEUKOCYTE COUNT / LYMPHOCYTE / MEAN CORPUSCULAR HEMOGLOBIN / MEAN CORPUSCULAR VOLUME / MONOCYTE / NEUTROPHIL / NUCLEATED RED BLOOD CELLS / PLATELET COUNT: tissue Blood; for ALANINE AMINOTRANSFERASE / ALBUMIN / ALKALINE PHOSPHATASE / ASPARTATE AMINOTRANSFERASE / BLOOD UREA NITROGEN / CARBON DIOXIDE / CHLORIDE / CHOLESTEROL / CREATINE PHOSPHOKINASE / CREATININE / GLUCOSE / LACTATE DEHYDROGENASE / LIPASE / PHOSPHORUS / POTASSIUM / SODIUM / TOTAL BILIRUBIN / TOTAL PROTEIN / URIC ACID: tissue Plasma
[1] = 3 mg/kg, 72 h, dose level Low, time 3 day
[2] = 3 mg/kg, 120 h, dose level Low, time 5 day
[3] = 30 mg/kg, 72 h, dose level M2, time 3 day
[4] = 30 mg/kg, 120 h, dose level M2, time 5 day

CC(C)(C)CC(C)(C)c1ccc(OCCOCC[N+](C)(C)Cc2ccccc2)cc1.[Cl-] [BENZETHONIUM CHLORIDE]
ABSOLUTE BASOPHIL [1]: 0 CELLS/uL | ABSOLUTE EOSINOPHIL [1]: 41 CELLS/uL | ABSOLUTE LYMPHOCYTE [1]: 15440.33 CELLS/uL | ABSOLUTE MONOCYTE [1]: 415 CELLS/uL | ABSOLUTE SEGMENTED NEUTROPHIL [1]: 1437 CELLS/uL | BASOPHIL [1]: 0% | EOSINOPHIL [1]: 0.33% | ERYTHROCYTE COUNT [1]: 5.3 x10E6/uL | HEMATOCRIT [1]: 33.43% | HEMOGLOBIN [1]: 12.63 G/DL | LEUKOCYTE COUNT [1]: 17.33 x10E3/uL | LYMPHOCYTE [1]: 89.33% | MEAN CORPUSCULAR HEMOGLOBIN [1]: 23.87 pg | MEAN CORPUSCULAR VOLUME [1]: 63.13 fL | MONOCYTE [1]: 2.33% | NEUTROPHIL [1]: 8% | NUCLEATED RED BLOOD CELLS [1]: 0 /100WBC | PLATELET COUNT [1]: 1329.67 x10E3/uL | ALANINE AMINOTRANSFERASE [1]: 45 u/L | ALBUMIN [1]: 3.7 G/DL | ALKALINE PHOSPHATASE [1]: 323.67 u/L | ASPARTATE AMINOTRANSFERASE [1]: 74 u/L | BLOOD UREA NITROGEN [1]: 15.67 mg/dL | CARBON DIOXIDE [1]: 28 mmol/L | CHLORIDE [1]: 101 MEQ/L | CHOLESTEROL [1]: 83.33 mg/dL | CREATINE PHOSPHOKINASE [1]: 130.67 u/L | CREATININE [1]: 0.18 mg/dL | GLUCOSE [1]: 149.33 mg/dL | LACTATE DEHYDROGENASE [1]: 78.67 u/L | LIPASE [1]: 8.67 u/L | PHOSPHORUS [1]: 11.23 mg/dL | POTASSIUM [1]: 6.78 MEQ/L | SODIUM [1]: 142.67 MEQ/L | TOTAL BILIRUBIN [1]: 0.23 mg/dL | TOTAL PROTEIN [1]: 5.93 G/DL | URIC ACID [1]: 1.53 mg/dL | ABSOLUTE BASOPHIL [2]: 0 CELLS/uL | ABSOLUTE EOSINOPHIL [2]: 149.33 CELLS/uL | ABSOLUTE LYMPHOCYTE [2]: 16956.67 CELLS/uL | ABSOLUTE MONOCYTE [2]: 380.67 CELLS/uL | ABSOLUTE SEGMENTED NEUTROPHIL [2]: 2446.67 CELLS/uL | BASOPHIL [2]: 0% | EOSINOPHIL [2]: 0.67% | ERYTHROCYTE COUNT [2]: 5.5 x10E6/uL | HEMATOCRIT [2]: 34.13% | HEMOGLOBIN [2]: 12.67 G/DL | LEUKOCYTE COUNT [2]: 19.93 x10E3/uL | LYMPHOCYTE [2]: 85.33% | MEAN CORPUSCULAR HEMOGLOBIN [2]: 23 pg | MEAN CORPUSCULAR VOLUME [2]: 62.03 fL | MONOCYTE [2]: 2% | NEUTROPHIL [2]: 12% | NUCLEATED RED BLOOD CELLS [2]: 0 /100WBC | PLATELET COUNT [2]: 1520.67 x10E3/uL | ALANINE AMINOTRANSFERASE [2]: 63 u/L | ALBUMIN [2]: 3.47 G/DL | ALKALINE PHOSPHATASE [2]: 275 u/L | ASPARTATE AMINOTRANSFERASE [2]: 71.67 u/L | BLOOD UREA NITROGEN [2]: 14.67 mg/dL | CARBON DIOXIDE [2]: 27.33 mmol/L | CHLORIDE [2]: 103 MEQ/L | CHOLESTEROL [2]: 70.67 mg/dL | CREATINE PHOSPHOKINASE [2]: 560.33 u/L | CREATININE [2]: 0.23 mg/dL | GLUCOSE [2]: 152.67 mg/dL | LACTATE DEHYDROGENASE [2]: 156.67 u/L | LIPASE [2]: 10 u/L | PHOSPHORUS [2]: 11.23 mg/dL | POTASSIUM [2]: 7.21 MEQ/L | SODIUM [2]: 144.55 MEQ/L | TOTAL BILIRUBIN [2]: 0.17 mg/dL | TOTAL PROTEIN [2]: 5.73 G/DL | URIC ACID [2]: 1.53 mg/dL | ABSOLUTE BASOPHIL [3]: 0 CELLS/uL | ABSOLUTE EOSINOPHIL [3]: 0 CELLS/uL | ABSOLUTE LYMPHOCYTE [3]: 10787.33 CELLS/uL | ABSOLUTE MONOCYTE [3]: 579.67 CELLS/uL | ABSOLUTE SEGMENTED NEUTROPHIL [3]: 1766.33 CELLS/uL | BASOPHIL [3]: 0% | EOSINOPHIL [3]: 0% | ERYTHROCYTE COUNT [3]: 5.13 x10E6/uL | HEMATOCRIT [3]: 31.77% | HEMOGLOBIN [3]: 11.87 G/DL | LEUKOCYTE COUNT [3]: 13.13 x10E3/uL | LYMPHOCYTE [3]: 83% | MEAN CORPUSCULAR HEMOGLOBIN [3]: 23.13 pg | MEAN CORPUSCULAR VOLUME [3]: 61.93 fL | MONOCYTE [3]: 4.33% | NEUTROPHIL [3]: 12.67% | NUCLEATED RED BLOOD CELLS [3]: 0 /100WBC | PLATELET COUNT [3]: 981 x10E3/uL | ALANINE AMINOTRANSFERASE [3]: 24.33 u/L | ALBUMIN [3]: 2.63 G/DL | ALKALINE PHOSPHATASE [3]: 269 u/L | ASPARTATE AMINOTRANSFERASE [3]: 71.67 u/L | BLOOD UREA NITROGEN [3]: 15.33 mg/dL | CARBON DIOXIDE [3]: 21.67 mmol/L | CHLORIDE [3]: 101 MEQ/L | CHOLESTEROL [3]: 45 mg/dL | CREATINE PHOSPHOKINASE [3]: 122.67 u/L | CREATININE [3]: 0.15 mg/dL | GLUCOSE [3]: 140.67 mg/dL | LACTATE DEHYDROGENASE [3]: 116.67 u/L | LIPASE [3]: 7 u/L | PHOSPHORUS [3]: 11.27 mg/dL | POTASSIUM [3]: 5.61 MEQ/L | SODIUM [3]: 142.5 MEQ/L | TOTAL BILIRUBIN [3]: 0.1 mg/dL | TOTAL PROTEIN [3]: 5.93 G/DL | URIC ACID [3]: 2.4 mg/dL | ABSOLUTE BASOPHIL [4]: 0 CELLS/uL | ABSOLUTE EOSINOPHIL [4]: 0 CELLS/uL | ABSOLUTE LYMPHOCYTE [4]: 12245 CELLS/uL | ABSOLUTE MONOCYTE [4]: 1299.67 CELLS/uL | ABSOLUTE SEGMENTED NEUTROPHIL [4]: 8588.67 CELLS/uL | BASOPHIL [4]: 0% | EOSINOPHIL [4]: 0% | ERYTHROCYTE COUNT [4]: 4.82 x10E6/uL | HEMATOCRIT [4]: 29.43% | HEMOGLOBIN [4]: 11.43 G/DL | LEUKOCYTE COUNT [4]: 22.13 x10E3/uL | LYMPHOCYTE [4]: 55% | MEAN CORPUSCULAR HEMOGLOBIN [4]: 23.73 pg | MEAN CORPUSCULAR VOLUME [4]: 61.07 fL | MONOCYTE [4]: 6% | NEUTROPHIL [4]: 39% | NUCLEATED RED BLOOD CELLS [4]: 0 /100WBC | PLATELET COUNT [4]: 1372 x10E3/uL | ALANINE AMINOTRANSFERASE [4]: 31.67 u/L | ALBUMIN [4]: 2.27 G/DL | ALKALINE PHOSPHATASE [4]: 363.33 u/L | ASPARTATE AMINOTRANSFERASE [4]: 89.33 u/L | BLOOD UREA NITROGEN [4]: 11.67 mg/dL | CARBON DIOXIDE [4]: 29.33 mmol/L | CHLORIDE [4]: 101.67 MEQ/L | CHOLESTEROL [4]: 41.33 mg/dL | CREATINE PHOSPHOKINASE [4]: 166.67 u/L | CREATININE [4]: 0.11 mg/dL | GLUCOSE [4]: 117.33 mg/dL | LACTATE DEHYDROGENASE [4]: 105.33 u/L | LIPASE [4]: 7 u/L | PHOSPHORUS [4]: 10.93 mg/dL | POTASSIUM [4]: 6.02 MEQ/L | SODIUM [4]: 143.77 MEQ/L | TOTAL BILIRUBIN [4]: 0.1 mg/dL | TOTAL PROTEIN [4]: 5.3 G/DL | URIC ACID [4]: 1.83 mg/dL
